Read-outs that look alike come from different tables or passages of the source.
Experiments:
[1] = Membrane filtration permeability, Pennzoil 80W90 soiled system; assay type: physicochemical; details: 1% oil, 140° F., HPLC
Text: (§1) A Membrex Benchmark GX (Fairfield, N.J.) lab-scale rotating membrane filtration unit was used for all permeability studies. Membrane cartridges were made of polyacrylonitrile with a 0.05 um pore size (Part #0567, Osmonics Corp., Minnetonka, Minn.).
(§2) One to two liters of the aqueous alkaline solution of the present invention in its diluted form, usually including 0.15% surfactant and 0.05% potassium carbonate, was placed in both the customer (or initial) and holding tanks (appropriately sized glass beakers). For experiments with soil, oil was added at a 1% level to both tanks. The tanks were heated with magnetic stirring on hotplates to either 140° F. or 100° F. The temperature was maintained throughout each experiment with RTD temperature probes interfaced to the hotplates. The rotation rate of the membrane filtration unit was 3000 RPM. Material from the holding tank was pumped into the membrane filtration unit at a flow of 600 ml/min. The outlet pressure was adjusted to achieve a 5 psi pressure drop across the membrane, resulting in permeate flows of approximately 100-300 ml/min depending on the soil and the operating temperature. The transfer line from the customer tank to the holding tank was adjusted to equal the permeate flow rate in order to maintain a constant level in both customer and holding tank. One cycle or turnover is defined to be the time at which the cumulative volume of permeate equals the initial volume of the customer tank. Permeate samples were collected at 1, 5 and/or 10 cycles.
(§3) A 0.05 um PAN membrane was used in the filtration.
(§4) Surfactant levels in permeate samples were determined by TOC (unsoiled studies only) and by HPLC/ELSD.
(§5) A sample of the initial cleaning solution was collected before addition of oil (if added) and before starting membrane operation. This initial cleaning soultion sample is defined to be the 100% permeable concentration. Serial dilutions of the 100% permeable sample were made to obtain calibration samples for the HPLC analysis. Point-to-point calibration curves were used for HPLC quantitation due to the non-linear nature of the ELSD response. For TOC analysis the initial cleaning solution sample was used for the single point calibration. For surfactants with multiple surfactant oligomers, individual oligomer permeability and overall surfactant permeability were determined. The overall surfactant permeability was calculated from the average of the oligomer results, except for Surfonic® L108/85-5 where the result for major C8 hydrophobe was used.
(§6) Example 3 was performed in the same way as Example 2 but in the presence of soil. The method described in Example 2 was followed in Example 3. The permeability performance of surfactants in soiled systems is of interest given the desire to separate the aqueous cleaning materials from soil. Two oils were evaluated in this study: Cosmoline® 1102 and Pennzoil® 80W90 oil.

[2] = 1% aqueous solutions, Table H; cited from earlier work
[3] = Membrane filtration permeability, unsoiled system; assay type: physicochemical
Text: as §1, §2, §3, §4, §5

[4] = Surfactant Log P estimate by reversed phase HPLC
Protocol: Reversed phase HPLC was performed on all samples. Samples were filtered through Gelman 0.45 um PVDF filters and analyzed. Almost all separations were utilized the following conditions:
Column: Supelcosil LC-18 column, 15 cm×4.6 mm, 5 um particle size (Supelco, Bellefonte, Pa.).
Flow: 1 ml/min. Temperature: ambient Injection Volume: 50 ul Mobile Phase A: 70:30 methanol: water (v+v) with 10 mM ammonium acetate.
Mobile Phase B: 100% methanol.
The ELSD was operated at 40° C., with a nitrogen flow rate of 1.8 l/min. A Chromeleon Chromatography Data system (Dionex Corp. Sunnyvale, Calif.) was used to collect and process the HPLC data.
A reversed phase HPLC method was used to estimate surfactant Log P values. The HPLC capacity factor, k′, for each material was determined according to the equation: […]
The column void time was determined from the elution time of unretained salt. […] (FIG. 6).
The reversed phase HPLC separation used herein separates primarily based on the size of the hydrophobe. […] The peak maximum retention time was used to determine the Log P estimate for surfactants with either the narrow or the broad single peak profiles. […] (FIG. 7). […] In addition, the retention time of the individual hydrophobe peaks was used to calculate Log P values for these oligomers.

[5] = Membrane filtration permeability, Cosmoline 1102 soiled system; assay type: physicochemical; details: 1% oil, 140° F., HPLC
Text: as §1, §2, §3, §4, §5, §6
The permeability of four surfactants was evaluated at 100° F. in the presence of 1% Cosmoline® 1102 oil. […] The results are listed in Table N and are plotted in FIG. 26 with a comparison to the 140° F. results.

[6] = known values used for calibration; cited from earlier work
[7] = unsoiled, Cycle 5, 140° F., HPLC (Table M)
[8] = unsoiled, Cycle 1, 0.05 um PAN membrane
[9] = unsoiled, Cycle 5, 0.05 um PAN membrane
[10] = unsoiled, Cycle 10, 0.05 um PAN membrane
[11] = single peak or individual hydrophobe peak, alkyl benzene standards

Compound | Permeability, Pennzoil80W90-Cycle 5 [1] | Cloud Point (° C.) [2] | Permeability, Cosmoline 1102-Cycle 5 [5] | % Permeability ([3]; not told) | LogP, HPLC estimate [4] | further results
CCCCCCCCCCCC[N+](C)(C)[O-] [Barlox ® 12, dodecyl dimethyl amine oxide] | 63% | None | – | – | – | % Permeability [3, 7]: 80%; chromatographic logP [4]: 4.5
CCCCCCCC[N+](C)(C)[O-] [Mackamine ® C8, linear octyl dimethyl amine oxide] | 95% | None | 95% | – | – | Permeability, Cosmoline 1102-Cycle 1 [5]: 94%; Permeability, Cosmoline 1102-Cycle 10 [5]: 99%; % Permeability (HPLC) [3, 8]: 104%; % Permeability (TOC) [3, 8]: 101%; % Permeability (HPLC) [3, 9]: 105%; % Permeability (TOC) [3, 9]: 108%; % Permeability [3, 7]: 105%; % Permeability (HPLC) [3, 10]: 102%; % Permeability (TOC) [3, 10]: 117%; LogP, HPLC estimate [4, 11]: 2.5
CCCCCCCCCC[N+](C)(C)[O-] [Mackamine ® C10, linear decyl dimethyl amine oxide] | – | None | 53% | – | – | LogP, HPLC estimate [4, 11]: 3.4
CCc1ccccc1 [ethyl benzene] | – | – | – | – | – | Log P of alkylbenzene retention time standards [6]: 3.13
CCCCCCc1ccccc1 [hexyl benzene] | – | – | – | – | – | Log P of alkylbenzene retention time standards [6]: 5.24
CCCCCCCCc1ccccc1 [octyl benzene] | – | – | – | – | – | Log P of alkylbenzene retention time standards [6]: 6.30
C8 mono-glucoside [Glucopon ® 425/C8] | 97% | – | 74% | 104% | 2.5 | –
C10 mono-glucoside [Glucopon ® 425/C10] | 77% | – | 22% | 87% | 3.2 | –
C12 mono-glucoside [Glucopon ® 425/C12] | 49% | – | <20% | 44% | 4.3 | –
C14 mono-glucoside [Glucopon ® 425/C14] | 39% | – | <20% | 35% | 5.2 | –
cocamidopropyl betaine ammonium salt [Foamtaine ® CAB-A] | – | None | 9% | – | 3.6 | –
